Test results reported in PMC10926205 (iScience, 2024).
“Also recorded” adds a separate entry of the source. Like-named read-outs stand apart in the source and are kept apart here.

What was measured:
[1] = tested on: GREB1; test: GREB1 mRNA expression by qPCR in MCF-7; format: cell-based; conditions: MCF-7, 24 h; for GREB1 transcription (qPCR) compared to DMSO: E2 1nM, IBV 10nM, PHX, genistein, ±equol 100nM, neobavaisoflavone, bavachin, isobavachalcone, daidzein 1μM
[2] = molecular target: T1, ERα (Homo sapiens, UniProt P03372); test: cell-based; format: cell-based; conditions: for selectivity for either estrogen receptor: ERα vs ERβ array EC50; for EC50 / PRL-ERα EC50 (nM): array formation (DNA binding), 1 h; for EC50 / PRL-ERα EC50 (nM) / ERα DNA binding and transcription at the 100nM dose: ERα-GFP:PRL-HeLa
T1 sequence (P03372 1-595): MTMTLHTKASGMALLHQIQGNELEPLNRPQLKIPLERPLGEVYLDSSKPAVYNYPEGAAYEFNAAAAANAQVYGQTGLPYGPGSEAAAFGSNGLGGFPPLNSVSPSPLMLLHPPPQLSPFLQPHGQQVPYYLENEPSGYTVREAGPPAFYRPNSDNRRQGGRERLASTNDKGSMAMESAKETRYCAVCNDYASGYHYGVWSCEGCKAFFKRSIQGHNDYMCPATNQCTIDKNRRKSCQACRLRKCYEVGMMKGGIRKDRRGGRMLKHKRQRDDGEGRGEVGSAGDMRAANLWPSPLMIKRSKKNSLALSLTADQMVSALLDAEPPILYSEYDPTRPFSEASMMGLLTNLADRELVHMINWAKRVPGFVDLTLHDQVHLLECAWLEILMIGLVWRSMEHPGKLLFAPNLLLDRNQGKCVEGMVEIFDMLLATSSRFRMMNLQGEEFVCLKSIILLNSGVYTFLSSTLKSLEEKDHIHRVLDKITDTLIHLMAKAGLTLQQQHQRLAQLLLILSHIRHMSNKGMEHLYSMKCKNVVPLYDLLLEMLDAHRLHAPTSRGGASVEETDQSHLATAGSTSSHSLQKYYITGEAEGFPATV

[3] = tested on: MCF-7 cells; test: MCF-7 proliferation assay; format: cell-based; conditions: 120 h; for increase in cell number of MCF-7 cells: compared with DMSO
[4] = tested on: ERE-GFP reporter in the liver; test: Transgenic zebrafish ERE-GFP reporter, liver; format: in vivo; conditions: for ER signal (ERE-GFP) in the liver: highest nonlethal doses tested; for ERE-GFP activation in the zebrafish (liver or heart): nonlethal doses tested (<100μM)
[5] = molecular target: T2, ERβ (Homo sapiens, UniProt Q92731); test: cell-based; format: cell-based
[6] = tested on: GREB1; test: GREB1 smRNA FISH; format: cell-based; conditions: MCF-7, 24 h; E2 1nM, IBV 10 and 100nM, PHX 100nM
[7] = tested on: ERE-GFP in the heart valves; test: Transgenic zebrafish ERE-GFP reporter, heart valves; format: in vivo; conditions: highest nonlethal doses tested
[8] = tested on: ERα or ERβ; format: cell-based; conditions: flavonoid screen, cell line not stated
[9] = molecular target: T2, ERβ; test: dsRed2 reporter RNA FISH in GFP-ERβ:PRL-HeLa; format: cell-based; conditions: highest dose tested (10μM)
[10] = molecular target: T1, ERα; test: dsRed2 reporter RNA FISH in ERα-GFP:PRL-HeLa; format: cell-based
[11] = molecular target: T3, progesterone receptor (GFP-PR) (Homo sapiens, UniProt P06401); test: GFP-PR PRL array biosensor cell line, array formation; format: cell-based; conditions: 100nM
T3 sequence (P06401 679-933 limits assumed): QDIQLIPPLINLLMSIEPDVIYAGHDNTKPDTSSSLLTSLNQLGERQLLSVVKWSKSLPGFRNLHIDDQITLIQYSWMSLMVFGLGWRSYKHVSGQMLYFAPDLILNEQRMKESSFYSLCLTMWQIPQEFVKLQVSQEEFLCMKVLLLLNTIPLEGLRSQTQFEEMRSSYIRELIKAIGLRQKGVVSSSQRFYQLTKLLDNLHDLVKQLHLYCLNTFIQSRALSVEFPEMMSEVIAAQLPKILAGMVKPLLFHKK

[12] = tested on: ERα; conditions: read-out: EC50 for displacement of E2 from ERα in rat uteri; cited from earlier work
[13] = array formation (DNA binding), GFP-ERβ:PRL-HeLa, 1 h
[14] = read-out: PRL-ERβ EC50, array formation (DNA binding), GFP-ERβ:PRL-HeLa, 1 h

T2 sequence (Q92731 whole entry): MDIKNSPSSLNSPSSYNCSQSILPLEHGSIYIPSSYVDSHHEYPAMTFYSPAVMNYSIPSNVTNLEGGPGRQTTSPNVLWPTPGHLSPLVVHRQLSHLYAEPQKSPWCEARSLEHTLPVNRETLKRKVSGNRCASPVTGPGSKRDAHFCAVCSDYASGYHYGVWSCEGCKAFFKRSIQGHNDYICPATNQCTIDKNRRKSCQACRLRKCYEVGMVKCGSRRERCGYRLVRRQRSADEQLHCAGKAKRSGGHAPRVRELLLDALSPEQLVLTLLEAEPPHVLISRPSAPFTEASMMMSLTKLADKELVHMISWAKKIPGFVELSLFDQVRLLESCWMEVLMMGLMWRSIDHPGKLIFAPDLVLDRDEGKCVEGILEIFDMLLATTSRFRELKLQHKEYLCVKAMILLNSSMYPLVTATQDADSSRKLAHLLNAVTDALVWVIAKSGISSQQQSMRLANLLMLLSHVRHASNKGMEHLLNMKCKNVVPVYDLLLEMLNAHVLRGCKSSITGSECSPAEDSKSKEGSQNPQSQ

CC(C)=CCc1cc2c(cc1O)O[C@H](c1ccc(O)cc1)CC2=O [Bavachin]
GREB1 transcription (qPCR) compared to DMSO [1]: activation of GREB1 transcription
selectivity for either estrogen receptor [2]: > 5 fold

O=c1c(-c2ccc(O)cc2)coc2cc(O)ccc12 [Daidzein]
GREB1 transcription (qPCR) compared to DMSO [1]: activation of GREB1 transcription

C[C@]12CC[C@@H]3c4ccc(O)cc4CC[C@H]3[C@@H]1CC[C@@H]2O [E2, 17β-estradiol, reference compound]
increase in cell number of MCF-7 cells [3]: 150%
ER signal (ERE-GFP) in the liver [4]: activate ER signal
GREB1 transcription (qPCR) compared to DMSO [1]: activation of GREB1 transcription
fraction of cells with a visible array [5]: 75%
induction of transcriptionally active GREB1 alleles [6]: significant induction
ER signal (ERE-GFP) in the heart [7]: activate ER signal

COc1cc(O)ccc1/C=C/C(=O)c1ccc(O)cc1 [Echinatin]
EC50 in MCF-7 growth assay [3]: sub-micromolar
ERE-GFP activation in the zebrafish (liver or heart) [4]: Neither isosakuranetin, echinatin, nor loureirin A activated the ERE-GFP
GREB1 gene expression compared to DMSO and E2 ([1]; compounds 1μM, E2 10nM): induced expression to the same level as E2
EC50 [5]: 69.5 nM
PRL-ERβ EC50 (nM) [5, 13]: sub-micromolar
EC50 ([2]; PRL-ERα EC50 (nM)): 174 nM
PRL-ERα EC50 (nM) [2]: sub-micromolar

CN1CC[C@H](c2c(O)cc(O)c3c(=O)cc(-c4ccccc4Cl)oc23)[C@H](O)C1 [Flavopiridol (Alvocidib), Flavopiridol, reference compound]
transcriptional output (dsRed2 FISH) versus DMSO [8]: suppressed transcriptional output to a lower level than DMSO

CN1CC[C@H](c2c(O)cc(O)c3c(=O)cc(-c4ccccc4Cl)oc23)[C@H](O)C1.Cl [Flavopiridol HCl, reference compound]
transcriptional output (dsRed2 FISH) versus DMSO [8]: suppressed transcriptional output to a lower level than DMSO

O=c1c(-c2ccc(O)cc2)coc2cc(O)cc(O)c12 [Genistein]
GREB1 transcription (qPCR) compared to DMSO [1]: activation of GREB1 transcription

COc1cc(-c2coc3cc(O)c(OC)c(O)c3c2=O)cc(O)c1OC [Irigenin]
transcriptional output (dsRed2 FISH) versus DMSO [8]: suppressed transcription

CC(C)=CCc1c(O)ccc(C(=O)/C=C/c2ccc(O)cc2)c1O [Isobavachalcone]
GREB1 transcription (qPCR) compared to DMSO [1]: activation of GREB1 transcription
selectivity for either estrogen receptor [2]: > 5 fold

CC(C)=CCc1c(O)ccc2c1O[C@H](c1ccc(O)cc1)CC2=O [Isobavachin]
activity in GFP-ERβ:PRL-HeLa cells at the 100nM dose ([5]; 100nM): also active
ERα DNA binding and transcription at the 100nM dose [2]: induced ERα DNA binding and transcription
EC50 ([2]; PRL-ERα EC50 (nM)): 1.28 nM

C=CC(C)(C)c1cc(/C=C/C(=O)c2ccc(O)cc2)c(OC)cc1O [Licochalcone A]
dsRed2 reporter gene activation in GFP-ERβ:PRL-HeLa [9]: did activate the dsRed2 reporter gene
preference for ERβ compared to ERα ([5]; array EC50): 5 fold
EC50 [5, 14]: 92.1 nM
EC50 ([2]; read-out: PRL-ERα EC50): 508 nM
RNA FISH expression in ERα-GFP:PRL-HeLa ([10]; highest dose tested (10μM)): did not activate RNA FISH expression

COc1ccc(CCC(=O)c2ccc(O)cc2)c(OC)c1 [Loureirin A]
EC50 in MCF-7 growth assay [3]: sub-micromolar
MCF-7 cell proliferation, reaching the level of E2 [3]: not able to reach the level of E2
increase in cell number of MCF-7 cells [3]: 50%
ERE-GFP activation in the zebrafish (liver or heart) [4]: Neither isosakuranetin, echinatin, nor loureirin A activated the ERE-GFP
PRL-ERβ EC50 (nM) [5, 13]: sub-micromolar
EC50 [5, 14]: 76.2 nM
PRL-ERα EC50 (nM) [2]: sub-micromolar
EC50 ([2]; read-out: PRL-ERα EC50): 50 nM

CC(C)=CCc1cc(-c2coc3cc(O)ccc3c2=O)ccc1O [Neobavaisoflavone]
GREB1 transcription (qPCR) compared to DMSO [1]: activation of GREB1 transcription
selectivity for either estrogen receptor [2]: > 5 fold

COc1ccc(-c2cc(=O)c3c(O)cc(O[C@@H]4O[C@H](CO)[C@@H](O)[C@H](O)[C@H]4O[C@@H]4O[C@@H](C)[C@H](O)[C@@H](O)[C@H]4O)cc3o2)cc1O [Neodiosmin]
ERα DNA binding and transcription at the 100nM dose [2]: induced ERα DNA binding and transcription

CC(=O)[C@H]1CC[C@H]2[C@@H]3CCC4=CC(=O)CC[C@]4(C)[C@H]3CC[C@]12C [P4, progesterone]
array formation in GFP-PR cell line (controls) [11]: successfully induced array formation

CN1CCC(c2c(O)cc(O)c3c(=O)cc(-c4ccccc4Cl)oc23)C1CO (stereo not shown) [P276-00]
transcriptional output (dsRed2 FISH) versus DMSO [8]: suppressed transcriptional output to a lower level than DMSO; also recorded: suppressed transcription
gene transcription (dsRed2 RNA FISH) compared to DMSO ([10]; 10μM, 1 h, hits in ERα-GFP:PRL-HeLa): suppress gene transcription

Oc1ccc(C2=Cc3ccc(O)cc3OC2)cc1 [Phenoxodiol (Haginin E), Phenoxodiol]
ER signal (ERE-GFP) in the liver [4]: activate ER signal
GREB1 transcription (qPCR) compared to DMSO [1]: activation of GREB1 transcription
activity in GFP-ERβ:PRL-HeLa cells at the 100nM dose [5]: also active
ER signal (ERE-GFP) in the heart [7]: activate ER signal
EC50 [12]: ~500 nM

CCC(=O)[C@@]1(C)CC[C@H]2[C@@H]3CCC4=CC(=O)CCC4=C3CC[C@@]21C [R5020]
array formation in GFP-PR cell line (controls) [11]: successfully induced array formation

Oc1ccc([C@H]2COc3cc(O)ccc3C2)cc1 [S-Equol]
activity in GFP-ERβ:PRL-HeLa cells at the 100nM dose ([5]; 100nM): also active
ERα DNA binding and transcription at the 100nM dose [2]: induced ERα DNA binding and transcription
